Measurements reported in patent EP4563146A1 (IRBM S.P.A., priority 2023, dated 2025).
Where two headings read alike, the source gives them in different places.

System: ZIKV replicon
Test: ZIKV replication inhibition assay (NanoLuc replicon in Vero cells)
Settings: Zika virus, Vero, 72 h
[1] = read-out: ZIKA Cell_Nanoluc, Vero cells with stable ZIKV replicon, 72 h, Nano-Glo readout

Compound	EC50 [1]	EC50 (read-out: ZIKA Cell_Nanoluc)
O=C(Cc1ccccc1)Nc1cc(NC(=O)[N-]c2c[n+](CC3CCN(CCO)CC3)no2)cc(C(F)(F)F)c1 [Example 141, (3-((1-(2-Hydroxyethyl)piperidin-4-yl)methyl)-1,2,3-oxadiazol-3-ium-5-yl)((3-(2-phenylacetamido)-5-(trifluoromethyl)phenyl)-carbamoyl)amide]	1000 to 20000 nM	
Cc1noc(C)c1-c1ccc([C@@H](CN)[n+]2cc([N-]C(=O)Nc3cc(NC(=O)Cc4ccccc4)cc(C(F)(F)F)c3)on2)cc1 [Example 24, (S)-(3-(2-Amino-1-(4-(3,5-dimethylisoxazol-4-yl)phenyl)ethyl)-1,2,3-oxadiazol-3-ium-5-yl)((3-(2-phenylacetamido)-5-(trifluoromethyl)phenyl)carbamoyl)amide]	1000 to 20000 nM	
CN1CCCCC1C[n+]1cc([N-]C(=O)Nc2cc(NC(=O)Cc3ccccc3)cc(C3CC3)c2)on1 (centres unmarked) [Example 127]		1000 to 20000 nM
Cc1cccc2c1OCC2C(=O)Nc1cc(NC(=O)[N-]c2c[n+](Cc3ccccn3)no2)cc(C(F)(F)F)c1 (centres unmarked) [Example 67]		1000 to 20000 nM
O=C([N-]c1c[n+](Cc2ccccn2)no1)Nc1cc(NC(=O)c2ccnn2-c2ccccc2)cc(C(F)(F)F)c1 [Example 34]		1000 to 20000 nM
COc1ncc(-c2ccc(C[n+]3cc([N-]C(=O)Nc4cc(N)cc(C(F)(F)F)c4)on3)cc2)c(C)n1 [Example 3, ((3-Amino-5-(trifluoromethyl)phenyl)carbamoyl)(3-(4-(2-methoxy-4-methylpyrimidin-5-yl)benzyl)-1,2,3-oxadiazol-3-ium-5-yl)amide]	100 to 1000 nM	
CN1CCC(C[n+]2cc([N-]C(=O)Nc3cc(NC(=O)Cc4ccccc4)cc(C(F)(F)F)c3)on2)CC1 [Example 106, (3-((1-Methylpiperidin-4-yl)methyl)-1,2,3-oxadiazol-3-ium-5-yl)((3-(2-phenylacetamido)-5-(trifluoromethyl)phenyl)carbamoyl)amide]	1000 to 20000 nM	
CN(CC(F)(F)F)[C@H]1CC[C@H](C[n+]2cc([N-]C(=O)Nc3cc(N4CC[C@H](c5ccccc5)C4=O)cc(C(F)(F)F)c3)on2)CC1 [Example 146, (3-(((1R,4R)-4-(Methyl(2,2,2-trifluoroethyl)-amino)cyclohexyl)methyl)-1,2,3-oxadiazol-3-ium-5-yl)((3-((R)-2-oxo-3-phenylpyrrolidin-1-yl)-5-(trifluoromethyl)phenyl)carbamoyl)amide]		100 to 1000 nM
O=C(Cc1ccccc1)Nc1cc(Cl)cc(NC(=O)[N-]c2c[n+](Cc3ccccn3)no2)c1 [Example 58, ((3-Chloro-5-(2-phenylacetamido)phenyl)carbamoyl)(3-(pyridin-2-ylmethyl)-1,2,3-oxadiazol-3-ium-5-yl)amide]	1000 to 20000 nM	
O=C(Cn1c(C(F)F)nc2ccccc21)Nc1cc(NC(=O)[N-]c2c[n+](Cc3ccccn3)no2)cc(C(F)(F)F)c1 [Example 65]		> 20000 nM
O=C([N-]c1c[n+](Cc2ccccn2)no1)Nc1cc(NC(=O)c2cnn(Cc3ccccc3)c2)cc(C(F)(F)F)c1 [Example 35]		1000 to 20000 nM
NC1CC(C[n+]2cc([N-]C(=O)Nc3cc(NC(=O)Cc4ccccc4)cc(C(F)(F)F)c3)on2)C1 (centres unmarked) [Example 118, (3-((3-Aminocyclobutyl)methyl)-1,2,3-oxadiazol-3-ium-5-yl)((3-(2-phenylacetamido)-5-(trifluoromethyl)phenyl)carbamoyl)amide]	1000 to 20000 nM	
O=C(CC1CCC1)Nc1cc(NC(=O)[N-]c2c[n+](Cc3ccccn3)no2)cc(C(F)(F)F)c1 [Example 54]		1000 to 20000 nM
O=C([N-]c1c[n+](C[C@H]2CC[C@H](NC(=O)C(F)(F)F)CC2)no1)Nc1cc(N2CC[C@H](c3ccccc3)C2=O)cc(C(F)(F)F)c1 [Example 145, ((3-((R)-2-Oxo-3-phenylpyrrolidin-1-yl)-5-(trifluoromethyl)phenyl)carbamoyl)(3-(((1R,4R)-4-(2,2,2-trifluoroacetamido)cyclohexyl)methyl)-1,2,3-oxadiazol-3-ium-5-yl)amide]		1000 to 20000 nM
O=C(Cc1ccccc1)Nc1cc(NC(=O)[N-]c2c[n+](CC3CCCCN3)no2)cc(C(F)(F)F)c1 (centres unmarked) [Example 125, ((3-(2-Phenylacetamido)-5-(trifluoromethyl)-phenyl)carbamoyl)(3-(piperidin-2-ylmethyl)-1,2,3-oxadiazol-3-ium-5-yl)amide]	1000 to 20000 nM	
CN1CCCC(C[n+]2cc([N-]C(=O)Nc3cc(NC(=O)Cc4ccccc4)cc(C(F)(F)F)c3)on2)C1 (centres unmarked) [Example 117, (3-((1-Methylpiperidin-3-yl)methyl)-1,2,3-oxadiazol-3-ium-5-yl)((3-(2-phenylacetamido)-5-(trifluoromethyl)phenyl)carbamoyl)amide]	1000 to 20000 nM	
COc1ncc(-c2ccc(C[n+]3cc([N-]C(=O)Nc4cc(NS(=O)(=O)CC5CCCCC5)cc(C(F)(F)F)c4)on3)cc2)c(C)n1 [Example 2, ((3-((Cyclohexylmethyl)sulfonamido)-5-(trifluoromethyl)phenyl)carbamoyl)(3-(4-(2-methoxy-4-methylpyrimidin-5-yl)benzyl)-1,2,3-oxadiazol-3-ium-5-yl)amide]	> 20000 nM	
O=C([N-]c1c[n+](Cc2ccccn2)no1)Nc1cc(NC(=O)C2CCCC3(CCOC3)O2)cc(C(F)(F)F)c1 (centres unmarked) [Example 84]		1000 to 20000 nM

Compound	EC50 [1]	EC50 (read-out: ZIKA Cell_Nanoluc)
O=C(Cc1ccccc1)Nc1cc(NC(=O)[N-]c2c[n+](Cc3ccccc3)no2)cc(C(F)(F)F)c1 [Example 28, (3-Benzyl-1,2,3-oxadiazol-3-ium-5-yl)((3-(2-phenylacetamido)-5-(trifluoro-methyl)phenyl)carbamoyl)amide]	1000 to 20000 nM	
O=C([N-]c1c[n+](Cc2ccccn2)no1)Nc1cc(NC(=O)C2(Oc3ccc(Cl)cc3)COC2)cc(C(F)(F)F)c1 [Example 83]		1000 to 20000 nM
O=C(Cc1ccccc1)Nc1cc(NC(=O)[N-]c2c[n+](Cc3ccc(CCO)cc3)no2)cc(C(F)(F)F)c1 [Example 111, (3-(4-(2-Hydroxyethyl)benzyl)-1,2,3-oxadiazol-3-ium-5-yl)((3-(2-phenylacetamido)-5-(trifluoromethyl)phenyl)carbamoyl)amide]	100 to 1000 nM	
NCc1ccccc1C[n+]1cc([N-]C(=O)Nc2cc(NC(=O)Cc3ccccc3)cc(C(F)(F)F)c2)on1 [Example 114, (3-(2-(Aminomethyl)benzyl)-1,2,3-oxadiazol-3-ium-5-yl)((3-(2-phenylacetamido)-5-(trifluoromethyl)phenyl)carbamoyl)amide]	1000 to 20000 nM	
NCc1cccc(C[n+]2cc([N-]C(=O)Nc3cc(NC(=O)Cc4ccccc4)cc(C(F)(F)F)c3)on2)c1 [Example 108, (3-(3-(Aminomethyl)benzyl)-1,2,3-oxadiazol-3-ium-5-yl)((3-(2-phenylacetamido)-5-(trifluoromethyl)phenyl)carbamoyl)amide]	1000 to 20000 nM	
COc1ncc(-c2ccc(C[n+]3cc([N-]C(=O)Nc4cc(NS(=O)(=O)Cc5ccccc5)cc(C(F)(F)F)c4)on3)cc2)c(C)n1 [Example 10, (3-(4-(2-Methoxy-4-methylpyrimidin-5-yl)benzyl)-1,2,3-oxadiazol-3-ium-5-yl)((3-((phenylmethyl)sulfonamido)-5-(trifluoromethyl)phenyl)carbamoyl)amide]	100 to 1000 nM	
NC(=O)c1ccc(C[n+]2cc([N-]C(=O)Nc3cc(NC(=O)Cc4ccccc4)cc(C(F)(F)F)c3)on2)cc1 [Example 104, (3-(4-Carbamoylbenzyl)-1,2,3-oxadiazol-3-ium-5-yl)((3-(2-phenylacetamido)-5-(trifluoromethyl)phenyl)carbamoyl)amide]	1000 to 20000 nM	
CC(C(=O)Nc1cc(NC(=O)[N-]c2c[n+](Cc3ccccn3)no2)cc(C(F)(F)F)c1)c1ccccc1 (centres unmarked) [Example 32]		100 to 1000 nM
CN1CCC([n+]2cc([N-]C(=O)Nc3cc(NC(=O)Cc4ccccc4)cc(C(F)(F)F)c3)on2)CC1 [Example 100, (3-(1-Methylpiperidin-4-yl)-1,2,3-oxadiazol-3-ium-5-yl)((3-(2-phenylacetamido)-5-(trifluoromethyl)phenyl)carbamoyl)amide]	1000 to 20000 nM	
O=C(CCOC1CCCC1)Nc1cc(NC(=O)[N-]c2c[n+](Cc3ccccn3)no2)cc(C(F)(F)F)c1 [Example 73]		1000 to 20000 nM
O=C([N-]c1c[n+](C[C@H]2CC[C@@H](NCC(F)(F)F)CC2)no1)Nc1cc(N2CCC(c3ccccc3)C2=O)cc(C(F)(F)F)c1 (some centres unmarked) [Example 136, ((3-(2-Oxo-3-phenylpyrrolidin-1-yl)-5-(trifluoromethyl)phenyl)carbamoyl)(3-(((1s,4s)-4-((2,2,2-trifluoroethyl)amino)cyclohexyl)methyl)-1,2,3-oxadiazol-3-ium-5-yl)amide]		100 to 1000 nM
O=C(Cc1ccccc1)Nc1cc(NC(=O)[N-]c2c[n+](CC3CNCCCO3)no2)cc(C(F)(F)F)c1 (centres unmarked) [Example 115, (3-((1,4-oxazepan-2-yl)methyl)-1,2,3-oxadiazol-3-ium-5-yl)((3-(2-phenylacetamido)-5-(trifluoromethyl)phenyl)carbamoyl)amide]	1000 to 20000 nM	
O=C([N-]c1c[n+](Cc2ccccn2)no1)Nc1cc(NC(=O)C2CC2c2ccccc2)cc(C(F)(F)F)c1 (centres unmarked) [Example 50]		100 to 1000 nM
O=C([N-]c1c[n+](Cc2ccccn2)no1)Nc1cc(NCCc2ccccc2)cc(C(F)(F)F)c1 [Example 53, ((3-(Phenethylamino)-5-(trifluoromethyl)-phenyl)carbamoyl)(3-(pyridin-2-ylmethyl)-1,2,3-oxadiazol-3-ium-5-yl)amide]	1000 to 20000 nM	
COc1ccc(CC(=O)Nc2cc(NC(=O)[N-]c3c[n+](Cc4ccc(-c5cnc(OC)nc5C)cc4)no3)cc(C(F)(F)F)c2)cc1 [Example 16, (3-(4-(2-Methoxy-4-methylpyrimidin-5-yl)benzyl)-1,2,3-oxadiazol-3-ium-5-yl)((3-(2-(4-methoxyphenyl)acetamido)-5-(trifluoromethyl)phenyl)carbamoyl)amide]	1000 to 20000 nM	
Cc1nc(N)ncc1-c1ccc(C[n+]2cc([N-]C(=O)Nc3cc(NC(=O)Cc4ccccc4)cc(C(F)(F)F)c3)on2)nc1 [Example 25, (3-((5-(2-Amino-4-methylpyrimidin-5-yl)pyridin-2-yl)methyl)-1,2,3-oxadiazol-3-ium-5-yl)((3-(2-phenylacetamido)-5-(trifluoromethyl)phenyl)carbamoyl)amide]	1000 to 20000 nM	
O=C([N-]c1c[n+](Cc2ccccn2)no1)Nc1cc(NC(=O)c2cncn2C2CC2)cc(C(F)(F)F)c1 [Example 75]		> 20000 nM
